How the values were obtained:
[1] = tested on: human platelets (platelet-rich plasma); test: Platelet-rich plasma aggregation induced by 5 μM ADP; format: cell-based; details: for Platelet rich plasma aggregation induced by 5 μM ADP: 60 minutes at 37° C., baseline 75 ± 8
Experimental: (§1) None of them received aspirin or any other anti-platelet agents. All subjects underwent blood sampling after at least 30 minutes of rest and 2 or more hours of fasting. Blood was drawn between 8 and 10 a.m. in order to avoid any diurnal influence and sampled from an antecubital vein using a 21-gauge butterfly needle containing 3.8% sodium citrate (1:9 volume) after having discarded the first 1.5 ml of free running blood. Eleven Vacutainer tubes (4.5 ml) were collected for a total of 49 ml of whole blood-citrate mixture from each study participant. One tube was kept as an internal control and was incubated with buffer solution. […] To avoid possible observer bias, blood samples were coded and blinded. Sampling procedures, and platelet studies were performed by individuals unaware of the protocol.
The citrate and whole blood mixture were centrifuged at 1200 g for 5 minutes in order to obtain platelet-rich plasma (PRP) which was kept at room temperature for use within 1 hour. Platelet counts were determined for each PRP sample with a Coulter Counter ZM (Coulter Co., Hialeah, Fla.). Platelet numbers were adjusted to 3.50×10 ^8/ml with homologous platelet-poor plasma. Platelet aggregation (PA) was induced by 5 μM ADP, and 5 μM epinephrine. All agonists were obtained from Chronolog Corporation (Havertown, Pa.). Aggregation studies were performed using a 4 channel Chronolog Lumi-Aggregometer (model 560-Ca). Aggregation was expressed as the maximum percentage of light transmittance change (% max) from the baseline at the end of the recording time, using platelet-poor plasma as a reference. Aggregation curves were recorded for 6 minutes and analyzed according to internationally established standards. Ruggeri Z M, Semin Hemat 1994; 31: 229-239.

[2] = tested on: human platelets in whole blood; test: Whole blood impedance platelet aggregation induced by collagen; format: cell-based; details: for Whole blood impedance platelet aggregation induced by 1 μg/ml collagen: 60 minutes at 37° C., baseline 29 ± 7
Experimental: as §1
The methods are described in detail in Abbate R, et al., Amer J Clin Pathol 1986; 86: 91-96. Briefly, the whole blood citrate mixture was diluted 1:1 with 0.5 ml TBS, then swirled gently. The cuvette with the stirring bar was placed in the incubation well and allowed to warm to 37° C. for 5 minutes. Then the sample was transferred to the assay well. An electrode was placed in the sample cuvette. Platelet aggregation was stimulated with 1 μg/ml collagen. Platelet aggregation studies were performed using a Chrono-Log Whole Blood Aggregometer using Aggrolink” software. Platelet aggregability was expressed as the change in electrical impedance and is expressed in ohms.

[3] = tested on: shear-induced platelet aggregation; test: PFA-100 closure time, epinephrine/collagen cartridge; format: cell-based, human; details: for PFA-100 closure time with the epinephrine/collagen cartridge: baseline 201 ± 22
Experimental: as §1
The platelet function analyzer (PFA-100′, Dade Behring, Deerfield, Ill.) is a device that simulates changes in primary hemostasis after injury to a small vessel under flow conditions. Kundu S K, et al., Semin Thromb Hemost 1995; 21(Suppl 2): 106-112. The time required to obtain occlusion of the aperture was digitally recorded as a measure of shear-induced platelet aggregation. Closure time determinations were performed in duplicate.

[4] = tested on: platelet/endothelial cell adhesion molecule-1 (PECAM-1, CD31); test: Whole blood flow cytometry, PECAM-1 expression; format: cell-based, human; details: for Expression of platelet/endothelial cell adhesion molecule-1 (PECAM-1, CD31): baseline 69.2 ± 10.3
Experimental: as §1
(§2) The expression of platelet receptors was determined by using the following monoclonal antibodies: CD31 (platelet endothelial cell adhesion molecule (PECAM-1), CD41 (glycoprotein [GP] IIb/IIIa, (IIb (3), CD42b (GP Ib), CD 51/CD61 ((v (3, or vitronectin receptor), CD62p (P-selectin), CD107a (lysosome associated membrane protein-1; LAMP-1), CD 107b (LAMP-2), CD151 (platelet/endothelial tetraspan antigen-3; PETA-3), and PAC-1 for fibrinogen-platelet (PharMingen, San Diego, Calif.). Platelet-leukocyte interactions were assessed by using dual antibodies for a pan-platelet marker (CD 151), together with CD14, a monocyte/macrophage marker. The blood-citrate mixture (50 μl) was diluted with 450 μl Tris buffered saline (TBS) (10 mmol/L Tris, 0.15 mol/L sodium chloride) and mixed by gently inverting an Eppendorf tube 2 times. Five μl of the corresponding antibodies were then added to each solution and the samples were incubated for 30 minutes. After incubation, 400 μl of 2% buffered paraformaldehyde was added for fixation. The samples were analyzed by a Becton Dickinson FACScan flow cytometer set up to measure fluorescent light scatter, as described in Gurbel P A, et al., J Am Coll Cardiol. 1998; 31: 1466-1473. The data were collected in list mode files and then analyzed. P selectin was expressed as percent positive cells as described in Gurbel P A, et al, Am Heart J 2000; 139: 320-328. Other antigens were expressed as log mean fluorescence intensity.

[5] = tested on: platelet glycoprotein IIb/IIIa antigen (GPIIb, CD41); test: Whole blood flow cytometry, GP IIb/IIIa antigen expression; format: cell-based, human; details: for Expression of platelet glycoprotein IIb/IIIa antigen (GPIIb, CD41): baseline 521.8 ± 98.2
Experimental: as §1, §2

[6] = tested on: platelet vitronectin receptor (CD51/CD61); test: Whole blood flow cytometry, vitronectin receptor expression; format: cell-based, human; details: for Expression of platelet vitronectin receptor (CD51/CD61): baseline 11.2 ± 4.6
Experimental: as §1, §2

[7] = patients undergoing valsartan therapy; cited from earlier work

CC(O)CCC(=O)N(Cc1ccc(-c2ccccc2-c2nnn[nH]2)cc1)[C@H](C(=O)O)C(C)C (stereo partly drawn) [Valeryl 4-hydroxy valsartan, (S)-2{(4-Hydroxy-pentanoyl)-[2′-(1H-tetrazol-5-yl)-biphenyl-4-ylmethyl]amino}-3-methyl-butyric Acid]
Effect on ADP-induced platelet aggregation (in words) ([1]; PRP, 5 μM ADP, preincubation with escalating doses 10 nM to 100 μM): did not have any effect | Platelet rich plasma aggregation induced by 5 μM ADP ([1]; drug 10 nM): 75 ± 6% | Platelet rich plasma aggregation induced by 5 μM ADP ([1]; drug 100 nM): 76 ± 8% | Platelet rich plasma aggregation induced by 5 μM ADP ([1]; drug 1 μM): 77 ± 9% | Platelet rich plasma aggregation induced by 5 μM ADP ([1]; drug 10 μM): 76 ± 8% | Platelet rich plasma aggregation induced by 5 μM ADP ([1]; drug 100 μM): 77 ± 9% | Effect on collagen-induced platelet aggregation in whole blood (in words) ([2]; 1 μM collagen as printed in text, within the range of therapeutic activity): inhibited aggregation | Whole blood impedance platelet aggregation induced by 1 μg/ml collagen ([2]; drug 10 nM): 32 ± 8 ohms | Whole blood impedance platelet aggregation induced by 1 μg/ml collagen ([2]; drug 100 nM): 31 ± 9 ohms | Whole blood impedance platelet aggregation induced by 1 μg/ml collagen ([2]; drug 1 μM): 14 ± 6 ohms | Whole blood impedance platelet aggregation induced by 1 μg/ml collagen ([2]; drug 10 μM): 16 ± 8 ohms | Whole blood impedance platelet aggregation induced by 1 μg/ml collagen ([2]; drug 100 μM): 17 ± 8 ohms | Antiplatelet properties compared with valsartan (in words) ([3]; cartridge-based analyzers (PFA-100 and Ultegra)): stronger antiplatelet properties than valsartan | PFA-100 closure time with the epinephrine/collagen cartridge ([3]; drug 10 nM): 179 ± 28 s | PFA-100 closure time with the epinephrine/collagen cartridge ([3]; drug 100 nM): 190 ± 24 s | PFA-100 closure time with the epinephrine/collagen cartridge ([3]; drug 1 μM): 259 ± 20 s | PFA-100 closure time with the epinephrine/collagen cartridge ([3]; drug 10 μM): 257 ± 25 s | PFA-100 closure time with the epinephrine/collagen cartridge ([3]; drug 100 μM): 232 ± 31 s | Expression of platelet/endothelial cell adhesion molecule-1 (PECAM-1, CD31) ([4]; drug 10 nM): 74.2 ± 13.4 log MFI | Expression of platelet/endothelial cell adhesion molecule-1 (PECAM-1, CD31) ([4]; drug 100 nM): 69.7 ± 15.1 log MFI | Expression of platelet/endothelial cell adhesion molecule-1 (PECAM-1, CD31) ([4]; drug 1 μM): 70.3 ± 16.4 log MFI | Expression of platelet/endothelial cell adhesion molecule-1 (PECAM-1, CD31) ([4]; drug 10 μM): 73.1 ± 9.3 log MFI | Expression of platelet/endothelial cell adhesion molecule-1 (PECAM-1, CD31) ([4]; drug 100 μM): 71.2 ± 15.5 log MFI | Effect on PECAM-1 (CD31) (in words) ([4]; whole blood flow cytometry): not associated with any effect | Expression of platelet glycoprotein IIb/IIIa antigen (GPIIb, CD41) ([5]; drug 10 nM): 505.6 ± 77.8 log MFI | Expression of platelet glycoprotein IIb/IIIa antigen (GPIIb, CD41) ([5]; drug 100 nM): 432.7 ± 116.8 log MFI | Expression of platelet glycoprotein IIb/IIIa antigen (GPIIb, CD41) ([5]; drug 1 μM): 427.2 ± 114.1 log MFI | Expression of platelet glycoprotein IIb/IIIa antigen (GPIIb, CD41) ([5]; drug 10 μM): 515.9 ± 156.2 log MFI | Expression of platelet glycoprotein IIb/IIIa antigen (GPIIb, CD41) ([5]; drug 100 μM): 529.3 ± 121.8 log MFI | Effect on expression of GP IIb/IIIa (CD 41) (in words) ([5]; whole blood flow cytometry): slightly reduced | Expression of platelet vitronectin receptor (CD51/CD61) ([6]; drug 10 nM): 12.1 ± 4.2 log MFI | Expression of platelet vitronectin receptor (CD51/CD61) ([6]; drug 100 nM): 8.5 ± 3.1 log MFI | Expression of platelet vitronectin receptor (CD51/CD61) ([6]; drug 1 μM): 8.1 ± 3.8 log MFI | Expression of platelet vitronectin receptor (CD51/CD61) ([6]; drug 10 μM): 7.2 ± 5.6 log MFI | Expression of platelet vitronectin receptor (CD51/CD61) ([6]; drug 100 μM): 7.6 ± 3.3 log MFI | Effect on expression of vitronectin receptors (in words) ([6]; whole blood flow cytometry): moderately reduced | Level in plasma as share of valsartan levels [7]: 10%

From patent publication US20050197372A1 (priority 2002, published 2005)
